According to PMC9958940 (Viruses, 2023):
Where two headings read alike, the source gives them in different places. Starred links: 1 amine or outer side, 2 acyl side, 3 side chain; linkers in the order of their positions; H or OH if unused. Positions of bridges follow the written chain, without caps; N, C: chain ends. Non-standard residues stand in square brackets, D forms with d. Residues, ends and D or L forms follow the SMILES beside them. *: point of attachment. hTyr(3S-OH,4S-OH,3'-OSO3H) = N[C@H](C(=O)O)[C@H](O)[C@@H](O)c1ccc(O)c(OS(=O)(=O)O)c1; pTerphenylCO(4''-OnC5H11) = CCCCCOc1ccc(-c2ccc(-c3ccc(C(=O)*)cc3)cc2)cc1; Orn(4R-OH,5R-OH) = O=C([C@H](C[C@@H](O)[C@@H](O)N[*:3])N[*:1])[*:2]; hTyr(3S-OH,4S-OH) = N[C@H](C(=O)O)[C@H](O)[C@@H](O)c1ccc(O)cc1; Pro(3S-OH,4S-Me) = C[C@H]1CN[C@H](C(=O)O)[C@H]1O; X1 = CCCCCOc1ccc(-c2cc(-c3ccc(C(=O)*)cc3)no2)cc1; Gln(3R-OH) = NC(=O)C[C@@H](O)[C@H](N)C(=O)O; Hyp = O=C(O)[C@@H]1C[C@@H](O)CN1

Key:
[1] = test system: SARS-CoV-2 Wuhan strain; assay: microbe, parasite or virus in culture; type: cell-based; settings: VeroE6/TMPRSS2 cells; for IC50: Severe acute respiratory syndrome coronavirus 2, Wuhan strain, MOI 0.003, extracellular viral RNA at 24 h
[2] = Cell viability (cell-counting kit-8, WST-8) in VeroE6/TMPRSS2 cells; type: cell-based; settings: African green monkey, 24 h with compound
[3] = test system: Dengue virus serotype 2 (DENV-2); set-up: method as in ref [12] = [12]; settings: Vero cells; ref [12]; read-out: IC50, DENV-2 infection; cited from earlier work
[4] = test system: Zika virus (ZIKV); set-up: method as in ref [14] = [14]; settings: Vero cells; ref [14]; read-out: IC50, ZIKV infection; cited from earlier work
[5] = test system: SARS-CoV-2; settings: Vero cells, read-out: IC50, SARS-CoV-2 infection, cited from earlier work
[6] = test system: SARS-CoV-2 Wuhan strain; type: cell-based
[7] = test system: SARS-CoV-2 Wuhan strain; settings: VeroE6/TMPRSS2 cells, essentially in the same experimental condition; ref Ohashi et al. [29]; read-out: SARS-CoV-2 RNA IC50; cited from earlier work
[8] = test system: VeroE6/TMPRSS2 cells; settings: read-out: Cell Viability CC50, essentially in the same experimental condition, ref Ohashi et al. [29]; cited from earlier work
[9] = test system: SARS-CoV-2 Wuhan strain; assay: microbe, parasite or virus in culture; type: cell-based; settings: Severe acute respiratory syndrome coronavirus 2, 24 h, Calu-3 cells, 3 h inoculation plus 21 h, read-out: SARS-CoV-2 RNA IC50
[10] = Cell viability (cell-counting kit-8, WST-8) in Calu-3 cells; type: cell-based; settings: human, 24 h with compound
[11] = test system: Enterovirus 71 (EV71) replicon; set-up: method as in ref [10] = [10]; settings: Vero cells, estimated; ref [10]; read-out: IC50 to luciferase carrying EV71 replicon; cited from earlier work
[12] = test system: Chikungunya virus (CHIKV); set-up: method as in ref [11] = [11]; settings: U2OS or BHK-21 cells; ref [11]; read-out: IC50, CHIKV infection; cited from earlier work
[13] = target: helicase of DENV-2; set-up: method as in ref [13] = [13]; settings: in vitro; ref [13]; read-out: IC50, DENV-2 helicase enzymatic activity; cited from earlier work
[14] = test system: 3CLpro; set-up: method as in ref [33] = [33]; settings: in vitro; ref [33]; read-out: IC50, 3CLpro enzymatic activity; cited from earlier work
[15] = set-up: method as in ref [7] = [7]; settings: human adults, 100 mg daily; ref [7]; cited from earlier work

| SMILES | IC50 [1] | CC50 at 24 h [2] | IC50 [3] | IC50 [4] | effect on viral RNA levels, compound added at post-entry phase [6] | effect on viral RNA levels, compound added at virus entry phase [6] | IC50 [7] | CC50 [8] | further results |
| --- | --- | --- | --- | --- | --- | --- | --- | --- | --- |
| CCCCCOc1ccc(-c2ccc(-c3ccc(C(=O)N[C@H]4C[C@@H](O)[C@@H](O)NC(=O)[C@@H]5[C@@H](O)[C@@H](C)CN5C(=O)[C@H]([C@@H](C)O)NC(=O)[C@H]([C@H](O)[C@@H](O)c5ccc(O)cc5)NC(=O)[C@@H]5C[C@@H](O)CN5C(=O)[C@H]([C@@H](C)O)NC4=O)cc3)cc2)cc1 [Anidulafungin] ({pTerphenylCO(4''-OnC5H11)}-[Orn(4R-OH,5R-OH)]T[Hyp][hTyr(3S-OH,4S-OH)]T[Pro(3S-OH,4S-Me)]; lactam 1-C) | 7.09 µM | 24.6 µM | 3.24 µM | 2.08 µM |  |  |  |  | IC50 ([5]; ref [16]): 4.64 µM |
| CC[C@H](C)C[C@H](C)CCCCCCCCC(=O)N[C@H]1C[C@@H](O)[C@@H](NCCN)NC(=O)[C@@H]2[C@@H](O)CCN2C(=O)[C@H]([C@H](O)CCN)NC(=O)[C@H]([C@H](O)[C@@H](O)c2ccc(O)cc2)NC(=O)[C@@H]2C[C@@H](O)CN2C(=O)[C@H]([C@@H](C)O)NC1=O [Caspofungin] | > 64 µM | > 64 µM | 20.8 µM | 75.8 µM |  |  |  |  | effect on viral RNA levels (in words) ([1]; up to 64 µM): did not show any antiviral effect |
| COc1ccc2cc1Oc1ccc(cc1)C[C@H]1c3c(cc4c(c3Oc3cc5c(cc3OC)CCN(C)[C@@H]5C2)OCO4)CCN1C [Cepharanthine] |  |  |  |  | lower viral activity | considerable inhibition | 350 nM | 25.1 µM |  |
| CCCCCOc1ccc(-c2cc(-c3ccc(C(=O)N[C@H]4C[C@@H](O)[C@@H](O)NC(=O)[C@@H]5[C@@H](O)[C@@H](C)CN5C(=O)[C@H]([C@H](O)CC(N)=O)NC(=O)[C@H]([C@H](O)[C@@H](O)c5ccc(O)c(OS(=O)(=O)O)c5)NC(=O)[C@@H]5C[C@@H](O)CN5C(=O)[C@H]([C@@H](C)O)NC4=O)cc3)no2)cc1 [Micafungin] (X1-[Orn(4R-OH,5R-OH)]T[Hyp][hTyr(3S-OH,4S-OH,3'-OSO3H)][Gln(3R-OH)][Pro(3S-OH,4S-Me)]; lactam 1-C) | 26.1 µM | > 64 µM | 10.2 µM | 7.35 µM |  |  |  |  | selectivity index (SI = CC50/IC50) [1]: > 2.45; IC50 [9]: 55.3 µM; CC50 at 24 h [10]: > 64 µM; IC50 [11]: 5 to 8 µM; IC50 [12]: 20.6 µM; IC50 ([5]; ref [15]): 5.5 to 12.9 µM; IC50 [13]: 4.98 µM; IC50 [14]: 47.6 µM; half-life [15]: 11 to 17 h |
| CCC(CC)COC(=O)[C@H](C)N[P@](=O)(OC[C@H]1O[C@@](C#N)(c2ccc3c(N)ncnn23)[C@H](O)[C@@H]1O)Oc1ccccc1 [Remdesivir] |  |  |  |  | remarkable antiviral activity | no inhibitory effect | 1580 nM | > 64 µM |  |
